Measured values: US8258140B2 (Astrazeneca AB, priority 2009, dated 2012)

Each compound was assayed against T1, isolated rat AR-LBD (Rattus norvegicus, UniProt P15207) (assay: Androgen Receptor Ligand Binding Domain Competitive Binding Assay (fluorescence polarisation, PolarScreen)). Details: FP, 12 nM AR-LBD, 2 nM fluormone, 4-6 hours at room temperature, 50% reduction in tracer binding; read-out: Androgen Receptor Ligand Binding Domain Competitive Binding Assay (b) IC50/μM.
T1 construct: purchased Invitrogen PV4293
T1 sequence (P15207 651-882 limits assumed): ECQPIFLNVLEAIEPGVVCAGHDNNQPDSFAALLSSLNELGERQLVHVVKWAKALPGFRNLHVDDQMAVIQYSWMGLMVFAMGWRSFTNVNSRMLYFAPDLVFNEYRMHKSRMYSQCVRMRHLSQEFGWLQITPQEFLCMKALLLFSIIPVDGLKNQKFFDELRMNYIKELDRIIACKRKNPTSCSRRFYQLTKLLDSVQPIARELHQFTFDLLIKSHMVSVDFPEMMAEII
Experimental: The ability of compounds to bind to isolated Androgen Receptor Ligand binding domain (AR-LBD) was assessed in competition assays using a Fluorescence Polarisation (FP) detection end-point.
For the FP test, an assay test kit was purchased from Invitrogen and used to measure compound binding to the isolated rat AR-LBD which shares 100% sequence identity to the human AR-LBD. The Invitrogen PolarScreen™ Androgen Receptor Competitor Assay Red (Product Code No. PV4293), is a fluorescence polarisation (FP)—based competition assay which measures if test compound can displace a fluorescently-labelled tracer compound. If the test compound binds to the AR-LBD it will prevent the formation of the receptor/tracer complex, which will result in a low polarisation value.
The assay was performed as follows with all reagent additions carried out using the Thermo Scientific Matrix PlateMate: • 1. Acoustic dispense 120 nl of the test compound into a black low volume 384 well assay plates. • 2. Volumes of reagents are added to give the following final concentrations of assay components:—0.5 mM DTT, 2 nM fluormone, 12 nM AR-LBD in the Invitrogen Assay Buffer • 3. Dispense 15 μl of the assay mix into each well of the assay plate • 4. Cover the assay plate to protect the reagents from light and evaporation, and incubate at room temperature for 4-6 hours. • 5. Excite at […] and measure the fluorescent emission signal of each well at 590 nm in FP mode using the BMG PheraSTAR or other suitable plate reader.
Compounds were dosed directly from a compound source microplate containing serially diluted compound (4 wells containing 10 mM, 0.1 mM, 1 μM and 10 nM final compound respectively) to an assay microplate using an Labcyte Echo 550. The Echo 550 is a liquid handler that uses acoustic technology to perform direct microplate-to-microplate transfers of DMSO compound solutions and the system can be programmed to transfer multiple small nL volumes of compound from the different source plate wells to give the desired serial dilution of compound in the assay which is then back-filled to normalise the DMSO concentration across the dilution range. In total 120 nL of compound plus DMSO was added to each well and compounds tested in a 12-point concentration response format over a final compound concentration range of 100, 30, 10, 3, 1, 0.3, 0.1, 0.03, 0.01, 0.003, 0.001, 0.0001 μM, respectively.
FP dose response data obtained with each compound was exported into a suitable software package (such as Origin) to perform curve fitting analysis. Competitive AR binding may be expressed as an IC50 value. This is determined by calculation of the concentration of compound that is required to give a 50% reduction in tracer compound binding to AR-LBD.
Compound `CC(=O)N1CCN(CCOc2ccc(C3CCN(C4=Nn5c(nnc5C(F)(F)F)CC4)CC3)cc2)C[C@H]1C` [Example 51, 6-[4-(4-{2-[(3R)-4-acetyl-3-methylpiperazin-1-yl]ethoxy}phenyl)piperidin-1-yl]-3-(trifluoromethyl)-7,8-dihydro[1,2,4]triazolo[4,3-b]pyridazine] has an IC50 of 30.3 µM. Work on `CC(=O)N1CCN(CCOc2ccc(C3CCN(C4=Nn5c(nnc5C(F)(F)F)CC4)CC3)cc2)CC1` [Example 5.1, 6-(4-{4-[2-(4-acetylpiperazin-1-yl)ethoxy]phenyl}piperidin-1-yl)-3-(trifluoromethyl)-7,8-dihydro[1,2,4]triazolo[4,3-b]pyridazine] yielded an IC50 of 22.9 µM. With `CC(=O)N1CCN(CCCOc2ccc(C3CCN(C4=Nn5c(nnc5C(F)(F)F)CC4)CC3)cc2)CC1` [Example 4.1, 6-[4-[4-[3-(4-acetylpiperazin-1-yl)propoxy]phenyl]piperidin-1-yl]-3-(trifluoromethyl)-7,8-dihydro[1,2,4]triazolo[4,3-b]pyridazine] the IC50 was 23.8 µM. With `CN1CCN(CCOc2ccc(C3CCN(C4=Nn5c(nnc5C(F)(F)F)CC4)CC3)cc2)CC1=O` [Example 37, 1-methyl-4-[2-(4-{1-[3-(trifluoromethyl)-7,8-dihydro[1,2,4]triazolo[4,3-b]pyridazin-6-yl]piperidin-4-yl}phenoxy)ethyl]piperazin-2-one] the IC50 was 61.9 µM.
